According to patent US20210330611A1, “THERAPY FOR NEUROLOGICAL DISEASES/DISORDERS” (priority 2020, published 2021):
Counter-ions that a name gives are not always drawn. Like-named read-outs stand apart in the source and are kept apart here.

Key:
primary rat microglia [1] = system: primary rat microglia
[2] = system: fibrin-induced microglia activation; experiment: Image-based assay of fibrin-induced microglia activation (HTS and dose response); assay type: cell-based, rat; conditions: primary microglia HTS, fibrin stimulation; for inhibition at 10 µM: Rattus norvegicus, Microglia, read-out: Fibrin % inhibition
primary rat microglia [3] = experiment: Cell toxicity (dead cells, size <150 μm2) in coated fibrin (cFib) assay; conditions: primary microglia HTS;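 note: share of dead cells sized under 150 µm2 at 10 µM in fibrin-stimulated microglia HTS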
[4] = system: fibrin- and LPS-induced microglia activation; experiment: cells; assay type: cell-based, rat
[5] = system: LPS-induced microglia activation; experiment: Image-based assay of LPS-induced microglia activation (HTS and dose response); assay type: cell-based, rat; conditions: for inhibition at 10 µM: Rattus norvegicus, Microglia, read-out: LPS % inhibition
[6] = fibrin assay, dead cells (size <150 μm2), compounds at 10 μM
[7] = classification by fibrin and LPS inhibition, HTS at 10 μM
[8] = primary microglia HTS, LPS stimulation, compounds at 10 μM
[9] = cell size >800 μm2 as marker of activation
[10] = fibrin stimulation, cell size <150 μm2 as marker of toxicity
[11] = classification by fibrin and LPS inhibition in HTS
[12] = fibrin assay, dead cells (size <150 μm2)
[13] = quadrant by fibrin and LPS inhibition, HTS at 10 μM

Row | SMILES | LPS % cell toxicity (primary rat microglia [1]; rat) [%] | inhibition at 10 µM ([2]; compounds at 10 μM) [%] | Fibrin % cell toxicity (primary rat microglia [3]; [6]) [%] | Quadrant (FIG. 5b) [4, 7] | inhibition at 10 µM [5, 8] [%] | Fibrin % cell toxicity (primary rat microglia [3]; [12]) [%] | Quadrant (FIG. 5b) [4, 13] | also measured
1 | Cc1c(OCC(F)(F)F)ccnc1C[S@@+]([O-])c1nc2ccccc2[nH]1 [Dexlansoprazole] | 0 | -23 | 0 | Q4 | -12 |  |  | 
2 | CC1(C)C(C=C(Cl)Cl)C1C(=O)OCc1cccc(Oc2ccccc2)c1 (stereo not drawn) [Permethrin] | 0 |  |  |  |  |  |  | inhibition at 10 µM [2, 9]: -21%; Fibrin % cell toxicity (primary rat microglia [3]; [10]): 0%; Quadrant (FIG. 5b) [4, 11]: Q4; inhibition at 10 µM ([5]; 48 h): 11%
3 | C[C@@](Cc1ccc(O)c(O)c1)(NN)C(=O)O [S-(−)-carbidopa, Carbidopa] |  |  |  |  |  |  |  | LPS % cell toxicity (primary rat microglia [1]): 0%; Fibrin % inhibition [2, 9]: −91%; Fibrin % cell toxicity (primary rat microglia [3]; [10]): 0%; Quadrant (FIG. 5b) [4, 11]: Q4; LPS % inhibition [5]: 16%
4 | C=CCNC(N)=S [Allylthiourea] | 0 | -7 |  |  | 11 | 1 | Q4 | 
5 | CCc1ccc(CCOc2ccc(CC3SC(=O)NC3=O)cc2)nc1 (stereo not drawn) [Pioglitazone] | 1 |  |  |  |  |  |  | inhibition at 10 µM [2, 9]: 2%; Fibrin % cell toxicity (primary rat microglia [3]; [10]): 1%; Quadrant (FIG. 5b) [4, 11]: Q4; inhibition at 10 µM ([5]; 48 h): 33%
6 | O=C(Oc1cccc2cccnc12)c1ccccc1 [Benzoxiquine] | 0 | -2 |  |  | 14 | 1 | Q4 | 
7 | NC(=O)CN1CCCC1=O [Piracetam] | 0 |  |  |  |  |  |  | inhibition at 10 µM [2, 9]: -21%; Fibrin % cell toxicity (primary rat microglia [3]; [10]): 0%; Quadrant (FIG. 5b) [4, 11]: Q4; inhibition at 10 µM ([5]; 48 h): 9%
8 | C[C@]12CC[C@@H]3c4ccc(OC(=O)c5ccccc5)cc4CC[C@H]3[C@@H]1CC[C@@H]2O [Estradiol Benzoate] | 0 | -3 | 1 | Q4 | 8 |  |  | 
9 | CCOC(=O)/C=C(C)/C=C/C=C(C)/C=C/c1c(C)cc(OC)c(C)c1C [Etretinate] | 0 | -19 | 1 | Q4 | 9 |  |  | 
10 | Cc1ccc(N(CC2=NCCN2)c2cccc(O)c2)cc1 [Phentolamine] | 0 |  |  |  |  |  |  | inhibition at 10 µM [2, 9]: -21%; Fibrin % cell toxicity (primary rat microglia [3]; [10]): 0%; Quadrant (FIG. 5b) [4, 11]: Q4; inhibition at 10 µM ([5]; 48 h): 17%
11 | CC(CC(C(N)=O)(c1ccccc1)c1ccccc1)N(C)C (stereo not drawn) [Aminopentamide Sulfate] | 0 | 3 |  |  | 12 | 1 | Q4 | 
12 | Nc1ncnc2nc[nH]c12 [Adenine] | 1 | -7 |  |  | 22 | 1 | Q4 | 
13 | O=C(O)c1cc(=O)c2c(OCC(O)COc3cccc4oc(C(=O)O)cc(=O)c34)cccc2o1 [Cromoglicic acid] | 0 | -28 | 0 | Q4 | 8 |  |  | 
14 | CC(=O)NC(CCC(N)=O)C(=O)O (stereo not drawn) [Aceglutamide] | 0 | 36 |  |  | 20 | 1 | Q4 | 
15 | CC1(C)C2CCC1(CS(=O)(=O)O)C(=O)C2=Cc1ccc(C=C2C(=O)C3(CS(=O)(=O)O)CCC2C3(C)C)cc1 [Ecamsule] |  |  | 1 | Q4 |  |  |  | LPS % cell toxicity (primary rat microglia [1]): 0%; Fibrin % inhibition ([2]; compounds at 10 μM): 20%; LPS % inhibition [5, 8]: 29%
16 | CC(=O)Nc1ccc(OC(=O)c2ccccc2O)cc1 [Acetaminosalol] | 1 | -15 |  |  | 20 | 1 | Q4 | 
17 | N[C@H](Cc1ccccc1)C(=O)O [D-phenylalanine] | 0 | 1 | 1 | Q4 | 23 |  |  | 
18 | Cc1nc(-c2ccc(OCC(C)C)c(C#N)c2)sc1C(=O)O [Febuxostat] | 0 | 3 | 1 | Q4 | 10 |  |  | 
